“And” between values parts separate entries of the source, which are not always exact repeats. Equal entries are not always repeated.
Target: Genome polyprotein (dengue virus type 2, UniProt P29990)
Type: functional, Thailand/16681/1984

Sequence of Genome polyprotein (P29990 1346-1475 limits assumed): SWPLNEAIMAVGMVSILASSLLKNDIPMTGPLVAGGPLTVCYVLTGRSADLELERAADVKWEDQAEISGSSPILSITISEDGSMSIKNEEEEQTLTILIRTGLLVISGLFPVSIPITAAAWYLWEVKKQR
Sequence of Genome polyprotein (P29990 1476-2093 limits assumed): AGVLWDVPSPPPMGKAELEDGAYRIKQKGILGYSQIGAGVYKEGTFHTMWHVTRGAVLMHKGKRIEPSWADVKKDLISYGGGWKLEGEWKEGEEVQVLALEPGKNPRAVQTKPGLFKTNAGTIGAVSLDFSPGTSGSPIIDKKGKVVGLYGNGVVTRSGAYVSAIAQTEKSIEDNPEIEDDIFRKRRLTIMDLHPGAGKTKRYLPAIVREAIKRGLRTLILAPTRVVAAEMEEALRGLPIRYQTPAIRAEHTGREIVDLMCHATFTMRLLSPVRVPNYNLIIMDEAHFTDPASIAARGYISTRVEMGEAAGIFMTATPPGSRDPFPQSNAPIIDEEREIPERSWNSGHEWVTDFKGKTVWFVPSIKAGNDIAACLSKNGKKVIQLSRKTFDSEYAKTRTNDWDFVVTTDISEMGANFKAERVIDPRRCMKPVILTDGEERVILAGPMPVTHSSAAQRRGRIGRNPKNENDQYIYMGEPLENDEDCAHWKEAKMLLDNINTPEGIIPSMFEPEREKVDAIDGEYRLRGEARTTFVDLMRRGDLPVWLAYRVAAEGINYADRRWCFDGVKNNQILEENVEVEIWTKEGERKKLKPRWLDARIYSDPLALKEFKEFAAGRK

SMILES	IC50
c1ccc2c(CN3CCCc4cnccc4C3)n[nH]c2c1	> 99.5 µM
NCc1nccc(NC(=O)c2cc(Cl)cc(NC(=O)OCc3ccccc3)c2)n1	> 99.5 µM
CCn1cc(C(=O)Nc2ccccc2)nc(N2CC[C@@H](CO)C2)c1=O	> 99.5 µM
NCc1cccc(NC(=O)c2cc(F)cc(NC(=O)OCc3ccccc3)c2F)c1	> 99.5 µM
c1cnc2c(c1)CC[C@@H]2NCc1n[nH]c2ccccc12	> 99.5 µM
C[C@@H](Cc1c[nH]c2ccccc12)N1CCC(c2nc3ccccc3s2)CC1	> 99.5 µM
O=C(Nc1cc(Cl)cc(C(=O)Nc2cccc(C3CCNCC3)c2)c1)OCc1ccccc1	20.5 µM and 20.3 µM
COc1ccc(C)cc1S(=O)(=O)N[C@@H](C(=O)Nc1cccc(CN)c1)c1ccc(OCc2ccccc2)cc1	96 µM
NCc1cccc(NC(=O)[C@@H](NS(=O)(=O)CCc2ccccc2)c2ccc(OCc3ccccc3)cc2)c1	72.8 µM
NC1(c2cccc(NC(=O)c3cc(Cl)cc(NC(=O)OCc4ccccc4)c3)c2)CCC1	> 99.5 µM
Cc1ccc(-c2nc(NC(=O)[C@H](NC(=O)OCc3ccccc3)c3ccc(OCc4ccccc4)cc3)sc2CN(C)C)cc1	> 99.5 µM
CN(C)Cc1cc(NC(=O)c2cc(Cl)cc(NC(=O)OCc3ccccc3)c2)sn1	> 99.5 µM
Cn1ccc(-c2n[nH]cc2CN2CCC(c3nc4ccccc4s3)CC2)n1	> 99.5 µM
NCc1cccc(NC(=O)[C@H](NC(=O)OCc2ccccc2)C2CCNCC2)c1	> 99.5 µM
NCc1cc(S(=O)(=O)Nc2ccc(Cl)cc2C(=O)O)ccc1Oc1ccccc1	> 99.5 µM
O=C(O)c1cc(Cl)cc(Cl)c1S(=O)(=O)Nc1ccc(Oc2ccccc2Cl)cc1	> 99.5 µM
CCNC(=O)c1cn(CC)c(=O)c(N2CC[C@@H](CO)C2)n1	> 99.5 µM
NCc1cccc(NC(=O)[C@H](NC(=O)OCc2ccccc2)c2cccc(OCC3CCOCC3)c2)c1	> 99.5 µM
O=C(O)c1cc(Cl)ccc1NS(=O)(=O)c1ccc(-c2cscn2)cc1	87.5 µM
C[C@H]1CN(C(=O)c2cccc3c(CN)cccc23)CCC12CCNCC2	> 99.5 µM
CN1CCc2nc(NC(=O)c3cc(Cl)cc(NC(=O)OCc4ccccc4)c3)sc2C1	> 99.5 µM
CCn1nccc1S(=O)(=O)N[C@@H](C(=O)Nc1cccc(CN)c1)c1ccc(OCc2ccccc2)cc1	> 99.5 µM
O=C(O)c1cc(Cl)ccc1S(=O)(=O)N[C@H]1CC[C@@H](Oc2cnccn2)CC1	> 99.5 µM
NCC1CCN(C(=O)c2cc(Cl)cc(NC(=O)OCc3ccccc3)c2)CC1	> 99.5 µM
COc1ncccc1S(=O)(=O)N[C@H](C(=O)Nc1cccc(CN)c1)c1ccc(OCc2ccccc2)cc1	> 99.5 µM

SMILES	IC50
Cn1ccc(CS(=O)(=O)N[C@@H](C(=O)Nc2cccc(CN)c2)c2ccc(OCc3ccccc3)cc2)n1	> 99.5 µM
COC(=O)[C@H](NC(=O)OC(C)(C)C)c1ccc(-c2csc(C)c2)cc1	> 99.5 µM
CC1=NN(c2ccc(NS(=O)(=O)c3ccc(Cl)cc3C(=O)O)cn2)C(=O)C1	> 99.5 µM
O=C(O)c1cc(Cl)ccc1S(=O)(=O)Nc1ccc(C(=O)N2CCCCC2)cc1	> 99.5 µM
CN(C)[C@@H]1C[C@H](C(=O)Nc2cccc(CN)c2)CN(C(=O)OCc2ccccc2)C1	> 99.5 µM
c1cncc(CC2CN(Cc3n[nH]c4ccccc34)C2)c1	> 99.5 µM
O=C(Nc1cc(Cl)cc(C(=O)Nc2cccc(CC3CCNCC3)c2)c1)OCc1ccccc1	> 99.5 µM
CS(=O)(=O)c1cc(NC(=O)OCc2ccccc2)cc(C(=O)Nc2cccc(CN)c2)c1	> 99.5 µM
COC(=O)C1(S(=O)(=O)N[C@H](C(=O)Nc2cccc(CN)c2)c2ccc(OCc3ccccc3)cc2)CCC1	> 99.5 µM
c1nc(C2CCN(Cc3n[nH]c4c3CCC4)CC2)cs1	> 99.5 µM
CCC1([C@H](NC(=O)OCc2ccccc2)C(=O)NCc2cccc(CN)c2)CCCCC1	> 99.5 µM
NCCc1ccc(NC(=O)c2cc(Cl)cc(NC(=O)OCc3ccccc3)c2)cc1	30.9 µM
Cc1cc(NS(=O)(=O)c2ccc(Cl)cc2C(=O)O)nn1Cc1ccccc1	> 99.5 µM
Fc1cccc(F)c1-c1n[nH]cc1CN1CCC(c2nc3ccccc3s2)CC1	> 99.5 µM
CC(C)(C)OC(=O)NCc1cccc(NC(=O)c2cc(N)cc(Cl)c2)c1	> 99.5 µM
Cc1c(NC(=O)OCc2ccccc2)cc(C(=O)Nc2cccc(CN)c2)cc1C(F)(F)F	91.4 µM
O=C(O)c1cc(Cl)ccc1S(=O)(=O)Nc1ccc(-c2n[nH]c3c2CCCC3)cc1	73.2 µM
c1nc(C2CCN(Cc3n[nH]c4c3COCC4)CC2)cs1	> 99.5 µM
COc1ccc([C@@H](CC(=O)Nc2cccc(CN)c2)NC(=O)OCc2ccccc2)cc1Br	50.1 µM
COC(=O)c1n[nH]cc1CN1CCC(c2nc3ccccc3s2)CC1	> 99.5 µM
O=C(O)c1cc(Cl)ccc1S(=O)(=O)Nc1ccc(CN2CCCCC2)cc1	> 99.5 µM
CC(C)c1cc(S(=O)(=O)N[C@H](C(=O)Nc2cccc(CN)c2)c2ccc(OCc3ccccc3)cc2)on1	> 99.5 µM
Cc1nc(CCCNCc2n[nH]c3ccccc23)cs1	> 99.5 µM
COc1ncc(C(=O)Nc2cccc(CN)c2)cc1NC(=O)OCc1ccccc1	> 99.5 µM
NCc1cccc(NC(=O)[C@@H](NS(=O)(=O)c2ccccn2)c2ccc(OCc3ccccc3)cc2)c1	> 99.5 µM

SMILES	IC50
C[C@@H]1C[C@H](NS(=O)(=O)c2ccc(Cl)cc2C(=O)O)C[C@H](C)N1Cc1ccccc1	> 99.5 µM
c1ccc2sc(C3CCN(CCc4c[nH]c5ccccc45)CC3)nc2c1	> 99.5 µM
NC[C@H]1CC[C@H](NC(=O)c2cc(Cl)cc(NC(=O)OCc3ccccc3)c2)CC1	> 99.5 µM
NCc1cccc(NC(=O)[C@@H]2CCC[C@H](NC(=O)OCc3ccccc3)C2)c1	> 99.5 µM
Cn1nc2c(c1NC(=O)c1cc(Cl)cc(NC(=O)OCc3ccccc3)c1)CNC2	> 99.5 µM
c1ccc2c(CN[C@H]3CCc4ncsc4C3)n[nH]c2c1	> 99.5 µM
NCc1cc(S(=O)(=O)Nc2ccc(Cl)cc2C(=O)NCC(F)(F)F)ccc1Oc1ccccc1	> 99.5 µM
O=C(O)c1cc(Cl)ccc1S(=O)(=O)NC1CCN(S(=O)(=O)c2cccs2)CC1	> 99.5 µM
NCCNC(=O)c1cc(Cl)cc(NC(=O)OCc2ccccc2)c1	> 99.5 µM
NC1CCN(C(=O)c2cc(Cl)cc(NC(=O)OCc3ccccc3)c2)CC1	> 99.5 µM
c1ccc(-c2ncc(CN3CCC(c4nc5ccccc5s4)CC3)[nH]2)cc1	> 99.5 µM
C[C@@H](N)c1ccc(NC(=O)c2cc(Cl)cc(NC(=O)OCc3ccccc3)c2)cc1	48.2 µM
CC1(C)CNC[C@H](C(=O)Nc2cccc(CN)c2)C1	> 99.5 µM
CCn1cc(C(=O)N2CCN(C)CC2)nc(N2CC[C@@H](CO)C2)c1=O	> 99.5 µM
O=C(O)c1cc(Cl)ccc1S(=O)(=O)Nc1ccc(S(=O)(=O)Nc2ccccc2)cc1	> 99.5 µM
c1cc(CN2CCC(c3cscn3)CC2)[nH]n1	> 99.5 µM
NCc1cccc(NC(=O)[C@@H](NS(=O)(=O)C[C@H]2CCCCO2)c2ccc(OCc3ccccc3)cc2)c1	> 99.5 µM
O=C(O)c1cc(Cl)ccc1S(=O)(=O)N[C@H]1CC[C@H](Oc2cnccn2)CC1	> 99.5 µM
NCc1cccc(NC(=O)[C@H](NS(=O)(=O)c2cccnc2)c2ccc(OCc3ccccc3)cc2)c1	> 99.5 µM
NCc1cccc(NC(=O)[C@H](NC(=O)OCc2ccccc2)c2cccc(OCc3ncccn3)c2)c1	> 99.5 µM
CCc1ncc(CN2CCC(c3nc4ccccc4s3)CC2)[nH]1	> 99.5 µM
CCn1c(=O)c(N2CCC[C@H]2c2nncs2)nc2ccccc21	> 99.5 µM
Cc1cc(CN(C)C)cc(NC(=O)[C@H](NC(=O)OCc2ccccc2)c2ccc(OCc3ccccc3)cc2)c1	> 99.5 µM
c1ccc2sc(C3CCN(Cc4n[nH]c5c4CCCC5)CC3)nc2c1	> 99.5 µM
NCc1cccc(NC(=O)c2cc(NC(=O)OCc3ccccc3)cc(Cl)c2Cl)c1	87.3 µM

SMILES	IC50
CCn1nc(-c2ccccc2)cc1NS(=O)(=O)c1ccc(Cl)cc1C(=O)O	> 99.5 µM
COc1n[nH]cc1CN1CCC(c2nc3ccccc3s2)CC1	> 99.5 µM
C[C@H]1CNC[C@H](C(=O)Nc2cccc(CN)c2)C1	> 99.5 µM
Cc1nn(C)cc1S(=O)(=O)N[C@@H](C(=O)Nc1cccc(CN)c1)c1ccc(OCc2ccccc2)cc1	> 99.5 µM
Cn1ccc(Nc2ccc(S(=O)(=O)Nc3ccc(Cl)cc3C(=O)O)cn2)n1	> 99.5 µM
Cn1ccnc1S(=O)(=O)N[C@@H](C(=O)Nc1cccc(CN)c1)c1ccc(OCc2ccccc2)cc1	> 99.5 µM
CC1(N2CCC(NS(=O)(=O)c3ccc(Cl)cc3C(=O)O)CC2)CCCCC1	> 99.5 µM
NCc1cccc(NC(=O)[C@@H](NS(=O)(=O)c2ccccc2F)c2ccc(OCc3ccccc3)cc2)c1	> 99.5 µM
c1ccc2c(CN[C@H]3CCc4c([nH]c5ccccc45)C3)n[nH]c2c1	> 99.5 µM
CCS(=O)(=O)N[C@@H](C(=O)Nc1cccc(CN)c1)c1ccc(OCc2ccccc2)cc1	> 99.5 µM
CN(C(=O)c1cc(Cl)cc(NC(=O)OCc2ccccc2)c1)c1ccc(CN)cc1	> 99.5 µM
CC(=O)N1CCC[C@H]1C(=O)N[C@@H](C(=O)Nc1cccc(CN)c1)c1ccc(OCc2ccccc2)cc1	> 99.5 µM
CC(C)N1CCc2nc(NC(=O)[C@H](NC(=O)OCc3ccccc3)c3ccc(OCc4ccccc4)cc3)sc2C1	> 99.5 µM
Cn1nccc1CN1CCC(NS(=O)(=O)c2ccc(Cl)cc2C(=O)O)CC1	> 99.5 µM
c1cncc(C2CC(NCc3n[nH]c4ccccc34)C2)c1 (centres undefined)	> 99.5 µM
N#Cc1ccccc1O[C@H]1CC[C@H](NS(=O)(=O)c2ccc(Cl)cc2C(=O)O)CC1	> 99.5 µM
NCc1cccc(NC(=O)[C@@H]2C[C@H](NC(=O)OCc3ccccc3)[C@H]3C[C@H]32)c1	> 99.5 µM
NCc1cccc(NC(=O)[C@H](NS(=O)(=O)C[C@H]2COCCO2)c2ccc(OCc3ccccc3)cc2)c1	> 99.5 µM
Cc1csc(COc2cccc([C@H](NC(=O)OCc3ccccc3)C(=O)Nc3cccc(CN)c3)c2)n1	27.2 µM
O=C(O)c1cc(Cl)ccc1S(=O)(=O)Nc1ccc(F)c(NC(=O)C2CC2)c1	> 99.5 µM
C[C@H]1CC[C@H](CS(=O)(=O)N[C@H](C(=O)Nc2cccc(CN)c2)c2ccc(OCc3ccccc3)cc2)CC1	34.2 µM
CCn1cc(S(=O)(=O)N[C@@H](C(=O)Nc2cccc(CN)c2)c2ccc(OCc3ccccc3)cc2)cn1	> 99.5 µM
NCc1cccc(NC(=O)[C@H](NC(=O)OCc2ccccc2)c2cccc(OCc3ccccn3)c2)c1	> 99.5 µM
NCc1ccc(Oc2ccc(S(=O)(=O)Nc3ccc(Cl)cc3C(=O)O)cc2)cc1	> 99.5 µM
